Assay results from US6737383B1, “Herbicidal oxadiazolidines” (priority 1999, dated 2004).

What was measured:
duck salad = test: Test B flood test duck salad; assay type: in vivo, Heteranthera limosa
Experimental: (§1) At the same time, these crop and weed species were also treated with postemergence applications of test chemicals formulated in the same manner. Plants ranged in height from 2 to 18 cm (1- to 4-leaf stage) for postemergence treatments. Plant species in the flood test consisted of rice (Oryza sativa), smallflower flatsedge (Cyperus difformis), duck salad (Heteranthera limosa) and bamyardgrass (Echinochloa crus-galli) grown to the 2-leaf stage for testing. Treated plants and controls were maintained in a greenhouse for twelve to sixteen days, after which all species were compared to controls and visually evaluated. Plant response ratings, summarized in Table B, are based on a scale of 0 to 10 where 0 is no effect and 10 is complete control. A dash (−) response means no test result.

smallflower flatsedge = test: Test B flood test smallflower flatsedge; assay type: in vivo, Cyperus difformis
Procedure, shortened: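 Each value is a visual injury score relative to controls, with 10 meaning complete control and 0 no effect. Evaluation took place twelve to sixteen days after the 2-leaf-stage plants were treated and kept in the greenhouse.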

bamyardgrass = test: Test B flood test barnyardgrass; assay type: in vivo, Echinochloa crus-galli
Experimental: as §1

rape = test: Test B pre/postemergence rape; assay type: in vivo, Brassica napus; conditions: Preemergence, scale of 0 to 10 where 0 is no effect and 10 is complete control; for Rape plant response rating: Rate 62 g/ha; for Plant response rating, Rape: Rate 125 g/ha
Procedure, shortened: (§2)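 Test chemicals in a non-phytotoxic solvent mixture with surfactant were sprayed preemergence onto planted seeds and postemergence onto plants 2 to 18 cm tall (1- to 4-leaf stage). After twelve to sixteen days in a greenhouse, injury was visually rated against untreated controls from 0 (no effect) to 10 (complete control).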

crabgrass = test: Test B pre/postemergence crabgrass; assay type: in vivo, Digitaria sanguinalis; conditions: Preemergence; for Crabgrass plant response rating: Rate 62 g/ha
Procedure, shortened: as §2

blackgrass = test: Test B pre/postemergence blackgrass; assay type: in vivo, Alopecurus myosuroides; conditions: Preemergence; for Blackgrass plant response rating: Rate 62 g/ha
Procedure, shortened: as §2

morningglory = test: Test B pre/postemergence morningglory; assay type: in vivo, Ipomoea hederacea; conditions: Preemergence, scale of 0 to 10 where 0 is no effect and 10 is complete control; for Morningglory plant response rating: Rate 62 g/ha; for Plant response rating, Morningglory: Rate 125 g/ha
Procedure, shortened: as §2

velvetleaf = test: Test B pre/postemergence velvetleaf; assay type: in vivo, Abutilon theophrasti; conditions: Preemergence, scale of 0 to 10 where 0 is no effect and 10 is complete control; for Velvetleaf plant response rating: Rate 62 g/ha; for Plant response rating, Velvetleaf: Rate 125 g/ha
Procedure, shortened: as §2

wild oat = test: Test B pre/postemergence wild oat; assay type: in vivo, Avena fatua; conditions: Preemergence, scale of 0 to 10 where 0 is no effect and 10 is complete control; for Wild oats plant response rating: Rate 62 g/ha; for Plant response rating, Wild oats: Rate 125 g/ha
Procedure, shortened: as §2

wheat = test: Test B pre/postemergence wheat; assay type: in vivo, Triticum aestivum; conditions: Preemergence, scale of 0 to 10 where 0 is no effect and 10 is complete control; for Wheat plant response rating: Rate 62 g/ha; for Plant response rating, Wheat: Rate 125 g/ha
Procedure, shortened: as §2

bedstraw = test: Test B pre/postemergence bedstraw; assay type: in vivo, Galium aparine; conditions: Preemergence
Procedure, shortened: as §2

surinam grass = test: Test B pre/postemergence surinam grass; assay type: in vivo, Brachiaria decumbens; conditions: Preemergence; for B. signalgrass plant response rating: Rate 62 g/ha
Procedure, shortened: as §2

soybean = test: Test B pre/postemergence soybean; assay type: in vivo, Glycine max; conditions: Preemergence, scale of 0 to 10 where 0 is no effect and 10 is complete control; for Soybean plant response rating: Rate 62 g/ha; for Plant response rating, Soybean: Rate 125 g/ha
Procedure, shortened: as §2

cocklebur = test: Test B pre/postemergence cocklebur; assay type: in vivo, Xanthium strumarium; conditions: Preemergence; for Cocklebur plant response rating: Rate 62 g/ha
Procedure, shortened: as §2

giant foxtail = test: Test B pre/postemergence giant foxtail; assay type: in vivo, Setaria faberii; conditions: Preemergence, scale of 0 to 10 where 0 is no effect and 10 is complete control; for Giant foxtail plant response rating: Rate 62 g/ha; for Plant response rating, Giant foxtail: Rate 125 g/ha
Procedure, shortened: as §2

corn = test: Test B pre/postemergence corn; assay type: in vivo, Zea mays; conditions: Preemergence; for Corn plant response rating: Rate 62 g/ha
Procedure, shortened: as §2

purple nutsedge = test: Test B pre/postemergence purple nutsedge; assay type: in vivo, Cyperus rotundus; conditions: Preemergence, Rate 125 g/ha; scale of 0 to 10 where 0 is no effect and 10 is complete control
Procedure, shortened: as §2

pigweed = test: Test B pre/postemergence pigweed; assay type: in vivo, Amaranthus retroflexus; conditions: Preemergence, scale of 0 to 10 where 0 is no effect and 10 is complete control; for Redroot pigweed plant response rating: Rate 62 g/ha; for Plant response rating, Redroot pigweed: Rate 125 g/ha
Procedure, shortened: as §2

sugar beet = test: Test B pre/postemergence sugar beet; assay type: in vivo, Beta vulgaris; conditions: Preemergence, scale of 0 to 10 where 0 is no effect and 10 is complete control; for Sugarbeets plant response rating: Rate 62 g/ha; for Plant response rating, Sugarbeets: Rate 125 g/ha
Procedure, shortened: as §2

[1] = Rate 62 g/ha, flood test species, Pre-emergence, visual evaluation after twelve to sixteen days
[2] = Rate 125 g/ha, under heading Pre-emergence, flood test species, visual evaluation after twelve to sixteen days
[3] = Rate 250 g/ha, Pre-emergence (flood test species), scale 0 to 10, 0 is no effect, 10 is complete control
[4] = Rate 500 g/ha, Pre-emergence section of Table B, 0 to 10 scale (0 no effect, 10 complete control)
[5] = scale of 0 to 10 where 0 is no effect and 10 is complete control
[6] = Rate 250 g/ha, scale 0 to 10 (0 no effect, 10 complete control)
[7] = Rate 125 g/ha, scale of 0 to 10 where 0 is no effect and 10 is complete control
[8] = Rate 500 g/ha, scale of 0 to 10 where 0 is no effect and 10 is complete control

CCCCCCn1c(=O)on(C(=O)N(c2ccc(Cl)cc2)C(C)C)c1=O [Compound 529]
2: Barnyardgrass plant response rating (bamyardgrass; [4])
0: Plant response rating, Ducksalad (0 to 10 scale, 0 is no effect, 10 is complete control) (duck salad; [1]) | Ducksalad plant response rating (0 to 10 scale, 0 is no effect, 10 is complete control) (duck salad; [2]) | Ducksalad plant response rating (duck salad; [3]) | Ducksalad plant response rating (duck salad; [4]) | Plant response rating, S. Flatsedge (0 to 10 scale, 0 is no effect, 10 is complete control) (smallflower flatsedge; [1]) | S. Flatsedge plant response rating (0 to 10 scale, 0 is no effect, 10 is complete control) (smallflower flatsedge; [2]) | S. Flatsedge plant response rating (smallflower flatsedge; [3]) | S. Flatsedge plant response rating (smallflower flatsedge; [4]) | Plant response rating, Barnyardgrass (0 to 10 scale, 0 is no effect, 10 is complete control) (bamyardgrass; [1]) | Barnyardgrass plant response rating (0 to 10 scale, 0 is no effect, 10 is complete control) (bamyardgrass; [2]) | Barnyardgrass plant response rating (bamyardgrass; [3])

CC(C)N(C(=O)n1oc(=O)n(CCC(=O)N(C)C)c1=O)c1ccc(F)cc1F [Compound 687]
9: Plant response rating, Blackgrass (blackgrass; [7]) | Plant response rating, Blackgrass (blackgrass; [6]) | Plant response rating, Wild oats (wild oat) | Plant response rating, B. signalgrass (surinam grass; [7]) | Plant response rating, Redroot pigweed (pigweed)
10: Plant response rating, Blackgrass (blackgrass; [8]) | Plant response rating, B. signalgrass (surinam grass; [6]) | Plant response rating, B. signalgrass (surinam grass; [8])
4: Crabgrass plant response rating (crabgrass; [5]) | Plant response rating, Crabgrass (crabgrass; [6]) | Sugarbeets plant response rating (sugar beet)
3: Plant response rating, Morningglory (morningglory)
0: Rape plant response rating (rape) | Wheat plant response rating (wheat) | Bedstraw plant response rating (bedstraw; Rate 62 g/ha, scale of 0 to 10 where 0 is no effect and 10 is complete control) | Plant response rating, Bedstraw (bedstraw; [7]) | Plant response rating, Bedstraw (bedstraw; [8]) | Soybean plant response rating (soybean) | Plant response rating, Soybean (soybean) | Cocklebur plant response rating (cocklebur; [5]) | Plant response rating, Cocklebur (cocklebur; [7]) | Plant response rating, Cocklebur (cocklebur; [6]) | Plant response rating, Cocklebur (cocklebur; [8]) | Corn plant response rating (corn; [5]) | Plant response rating, Corn (corn; [7]) | Plant response rating, Corn (corn; [6]) | Plant response rating, Nutsedge (purple nutsedge)
2: Morningglory plant response rating (morningglory) | Velvetleaf plant response rating (velvetleaf)
7: Wild oats plant response rating (wild oat)
5: Plant response rating, Rape (rape) | Plant response rating, Velvetleaf (velvetleaf) | Plant response rating, Sugarbeets (sugar beet)
6: Plant response rating, Wheat (wheat) | B. signalgrass plant response rating (surinam grass; [5]) | Giant foxtail plant response rating (giant foxtail) | Plant response rating, Giant foxtail (giant foxtail)
8: Blackgrass plant response rating (blackgrass; [5]) | Redroot pigweed plant response rating (pigweed)

CCn1ncc(Cn2c(=O)on(C(=O)N(c3ccc(F)cc3)C(C)C)c2=O)c1Cl [Compound 685]
10: Plant response rating, Blackgrass (blackgrass; [6]) | Plant response rating, Blackgrass (blackgrass; [8])
3: Plant response rating, Wild oats (wild oat)
4: Plant response rating, Redroot pigweed (pigweed)
0: Rape plant response rating (rape) | Plant response rating, Rape (rape) | Morningglory plant response rating (morningglory) | Plant response rating, Morningglory (morningglory) | Velvetleaf plant response rating (velvetleaf) | Plant response rating, Velvetleaf (velvetleaf) | Wild oats plant response rating (wild oat) | Wheat plant response rating (wheat) | Plant response rating, Wheat (wheat) | Plant response rating, Bedstraw (bedstraw; [7]) | Plant response rating, Bedstraw (bedstraw; [6]) | Plant response rating, Bedstraw (bedstraw; [8]) | Soybean plant response rating (soybean) | Plant response rating, Soybean (soybean) | Cocklebur plant response rating (cocklebur; [5]) | Plant response rating, Cocklebur (cocklebur; [7]) | Plant response rating, Cocklebur (cocklebur; [6]) | Corn plant response rating (corn; [5]) | Plant response rating, Corn (corn; [7]) | Plant response rating, Corn (corn; [6]) | Plant response rating, Nutsedge (purple nutsedge) | Redroot pigweed plant response rating (pigweed) | Sugarbeets plant response rating (sugar beet) | Plant response rating, Sugarbeets (sugar beet)
9: Crabgrass plant response rating (crabgrass; [5]) | Plant response rating, Crabgrass (crabgrass; [7]) | Plant response rating, Crabgrass (crabgrass; [6]) | Plant response rating, B. signalgrass (surinam grass; [6]) | Plant response rating, B. signalgrass (surinam grass; [8]) | Giant foxtail plant response rating (giant foxtail) | Plant response rating, Giant foxtail (giant foxtail)
7: Plant response rating, Blackgrass (blackgrass; [7]) | Plant response rating, B. signalgrass (surinam grass; [7])
5: Blackgrass plant response rating (blackgrass; [5]) | B. signalgrass plant response rating (surinam grass; [5])
